# Experimental data as given in patent US10525041B2, “Fluoroalkyl-substituted aryltriazole derivatives and uses thereof” (BAYER PHARMA AKTIENGESELLSCHAFT, priority 2016, dated 2020).
# What was measured:
# human V1a receptor = target: T1, human V1a receptor (Homo sapiens, UniProt P37288); assay: Cellular in vitro assay for vasopressin receptor activity, V1a cell line (aequorin luminescence); format: cell-based; conditions: for IC50: CHO cell line transfected with human V1a receptor, agonist [Arg8]-vasopressin at EC50 concentration, read-out: IC50hV1a; for ratio IC50 hV2/hV1a: ratio of the IC50 on human V2 to the IC50 on human V1a
# T1 construct: expressed in transfected cells; host or cells: CHO K1 (ATCC), also stably transfected with a modified aequorin
# T1 sequence (P37288 whole entry): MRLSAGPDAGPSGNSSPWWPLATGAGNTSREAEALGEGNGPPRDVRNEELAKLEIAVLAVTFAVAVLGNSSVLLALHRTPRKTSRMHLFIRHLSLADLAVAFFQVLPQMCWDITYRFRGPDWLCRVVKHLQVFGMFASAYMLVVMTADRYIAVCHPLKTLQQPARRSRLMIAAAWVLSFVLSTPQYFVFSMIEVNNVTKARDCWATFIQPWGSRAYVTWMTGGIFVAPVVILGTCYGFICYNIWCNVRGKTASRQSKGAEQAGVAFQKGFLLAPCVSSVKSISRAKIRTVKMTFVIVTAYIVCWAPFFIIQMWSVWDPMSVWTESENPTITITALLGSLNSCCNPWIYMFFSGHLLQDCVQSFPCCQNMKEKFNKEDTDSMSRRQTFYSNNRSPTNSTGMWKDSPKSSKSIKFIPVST
# Procedure: (§1) B-1. Cellular In Vitro Assay for Determining Vasopressin Receptor Activity
# (§2) The identification of agonists and antagonists of the V1a and V2 vasopressin receptors from humans, rats and dogs as well as the quantification of the activity of the compounds of the invention is carried out using recombinant cell lines. These cell lines originally derive from a hamster's ovary epithelial cell (Chinese Hamster Ovary, CHO K1, ATCC: American Type Culture Collection, Manassas, Va. 20108, USA). The test cell lines constitutively express the human, rat or dog V1a or V2 receptors. In case of the Gαq-coupled V1a receptors, cells are also stably transfected with a modified form of the calcium-sensitive photoproteins aequorin (human and rat V1a) or obelin (dog V1a), which, after reconstitution with the cofactor coelenterazine, emit light when there are increases in free calcium concentrations [Rizzuto R, Simpson A W, Brini M, Pozzan T, Nature 358, 325-327 (1992); Illarionov B A, Bondar V S, Illarionova V A, Vysotski E S, Gene 153 (2), 273-274 (1995)]. The resulting vasopressin receptor cells react to stimulation of the recombinantly expressed V1a receptors by intracellular release of calcium ions, which can be quantified by the resulting photoprotein luminescence. The Gs-coupled V2 receptors are stably transfected into cell lines expressing the gene for firefly luciferase under control of a CRE-responsible promoter. Activation of V2 receptors induces the activation of the CRE-responsive promoter via cAMP increase, thereby inducing the expression of firefly luciferase. The light emitted by photoproteins of V1a cell lines as well as the light emitted by firefly luciferase of V2 cell lines corresponds to the activation or inhibition of the respective vasopressin receptor. The bioluminescence of the cell lines is detected using a suitable luminometer [Milligan G, Marshall F, Rees S, Trends in Pharmacological Sciences 17, 235-237 (1996)].
# Vasopressin V1a Receptor Cell Lines:
# On the day before the assay, the cells are plated out in culture medium (DMEM/F12, 2% FCS, 2 mM glutamine, 10 mM HEPES, 5 μg/ml coelenterazine) in 384-well microtiter plates and kept in a cell incubator (96% humidity, 5% v/v CO2, 37° C.). On the day of the assay, test compounds in various concentrations are placed for 10 minutes in the wells of the microtiter plate before the agonist [Arg^8]-vasopressin at EC50 concentration is added. The resulting light signal is measured immediately in a luminometer.
# (§3) Table 1A below lists individual IC50 values for the compounds of the invention (including racemic mixtures as well as separated enantiomers) that were obtained from cell lines transfected with the human V1a or V2 receptor: […]
# human V2 receptor = target: T2, human V2 receptor (Homo sapiens, UniProt P30518); assay: Cellular in vitro assay for vasopressin receptor activity, V2 cell line (CRE-luciferase); format: cell-based; conditions: CHO cell line transfected with human V2 receptor; agonist [Arg8]-vasopressin at EC50 concentration, 3 hours; read-out: IC50hV2
# T2 construct: expressed in transfected cells; host or cells: CHO K1 (ATCC) line expressing firefly luciferase under a CRE-responsive promoter
# T2 sequence (P30518 whole entry): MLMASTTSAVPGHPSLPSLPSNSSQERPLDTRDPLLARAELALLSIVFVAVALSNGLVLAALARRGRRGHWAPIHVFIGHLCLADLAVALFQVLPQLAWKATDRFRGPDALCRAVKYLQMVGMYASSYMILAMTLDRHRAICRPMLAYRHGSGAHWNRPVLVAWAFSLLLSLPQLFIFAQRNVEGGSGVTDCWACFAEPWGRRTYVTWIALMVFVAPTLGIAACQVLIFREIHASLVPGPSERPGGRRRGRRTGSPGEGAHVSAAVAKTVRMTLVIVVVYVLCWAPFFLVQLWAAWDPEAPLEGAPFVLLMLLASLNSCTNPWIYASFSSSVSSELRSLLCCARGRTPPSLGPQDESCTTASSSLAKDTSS
# Procedure: as §1, §2
# Vasopressin V2 Receptor Cell Lines:
# On the day before the assay, the cells are plated out in culture medium (DMEM/F12, 2% FCS, 2 mM glutamine, 10 mM HEPES) in 384-well microtiter plates and kept in a cell incubator (96% humidity, 5% v/v CO2, 37° C.). On the day of the assay, test compounds in various concentrations and the agonist [Arg^8]-vasopressin at EC50 concentration are added together to the wells, and plates are incubated for 3 hours in a cell incubator. Upon addition of the cell lysis reagent Triton™ and the substrate luciferin, luminescence of firefly luciferase is measured in a luminometer.
# as §3
IC50 (human V1a receptor) [nM],ratio IC50 hV2/hV1a (human V1a receptor),IC50 (human V2 receptor) [nM],Compound
12.5,0.6,7.85,"CC(F)c1nc(Cn2nc(-c3ccc(Cl)cc3)n(C[C@H](O)C(F)(F)F)c2=O)nn1-c1cccc(F)c1 (single isomer, unassigned) [Example 15]"
1.73,6.7,11.6,"CC(F)(F)c1nc(Cn2nc(-c3ccc(Cl)cc3)n(C[C@H](O)C(F)(F)F)c2=O)nn1-c1ccccc1C(F)(F)F [Example 60, 5-(4-Chlorophenyl)-2-({5-(1,1-difluoroethyl)-1-[2-(trifluoromethyl)phenyl]-1H-1,2,4-triazol-3-yl}methyl)-4-[(2S)-3,3,3-trifluoro-2-hydroxypropyl]-2,4-dihydro-3H-1,2,4-triazol-3-one]"
2.05,9.0,18.5,"CC(F)c1nc(Cn2nc(-c3ccc(Cl)cc3)n(C[C@H](O)C(F)(F)F)c2=O)nn1-c1cnccc1Cl (mixture of isomers) [Example 4, 5-(4-Chlorophenyl)-2-({1-(4-chloropyridin-3-yl)-5-[1-fluoroethyl]-1H-1,2,4-triazol-3-yl}methyl)-4-[(2S)-3,3,3-trifluoro-2-hydroxypropyl]-2,4-dihydro-3H-1,2,4-triazol-3-one]"
2.7,6.3,17,"CC(F)c1nc(Cn2nc(-c3ccc(Cl)cc3)n(C[C@H](O)C(F)(F)F)c2=O)nn1-c1ccccc1OC(F)(F)F (mixture of isomers) [Example 25, 5-(4-Chlorophenyl)-2-({5-[1-fluoroethyl]-1-[2-(trifluoromethoxy)phenyl]-1H-1,2,4-triazol-3-yl}methyl)-4-[(2S)-3,3,3-trifluoro-2-hydroxypropyl]-2,4-dihydro-3H-1,2,4-triazol-3-one]"
4.7,5.7,26.7,"CC(F)(F)c1nc(Cn2nc(-c3ccc(Cl)cc3)n(C[C@H](O)C(F)(F)F)c2=O)nn1-c1ncccc1C(F)(F)F [Example 59, 5-(4-Chlorophenyl)-2-({5-(1,1-difluoroethyl)-1-[3-(trifluoromethyl)pyridin-2-yl]-1H-1,2,4-triazol-3-yl}methyl)-4-[(2S)-3,3,3-trifluoro-2-hydroxypropyl]-2,4-dihydro-3H-1,2,4-triazol-3-one]"
1.47,1.5,2.2,"O=c1n(Cc2nc(C(F)F)n(-c3ccccc3Cl)n2)nc(-c2ccc(Cl)cc2)n1C[C@H](O)C(F)(F)F [Example 51, 5-(4-Chlorophenyl)-2-{[1-(2-chlorophenyl)-5-(difluoromethyl)-1H-1,2,4-triazol-3-yl]methyl}-4-[(2S)-3,3,3-trifluoro-2-hydroxypropyl]-2,4-dihydro-3H-1,2,4-triazol-3-one]"
1.8,4.4,7.85,"CCOc1ccccc1-n1nc(Cn2nc(-c3ccc(Cl)cc3)n(C[C@H](O)C(F)(F)F)c2=O)nc1C(C)(F)F [Example 67, 5-(4-Chlorophenyl)-2-{[5-(1,1-difluoroethyl)-1-(2-ethoxyphenyl)-1H-1,2,4-triazol-3-yl]methyl}-4-[(2S)-3,3,3-trifluoro-2-hydroxypropyl]-2,4-dihydro-3H-1,2,4-triazol-3-one]"
1.75,5.6,9.8,"CC(F)c1nc(Cn2nc(-c3ccc(Cl)cc3)n(C[C@H](O)C(F)(F)F)c2=O)nn1-c1ccccc1OC(F)(F)F (single isomer, unassigned) [Example 27]"
9.7,0.2,1.73,"CC(F)c1nc(Cn2nc(-c3ccc(Cl)cc3)n(C[C@H](O)C(F)(F)F)c2=O)nn1-c1cccc(F)c1 (single isomer, unassigned) [Example 14]"
10.8,0.5,5.92,"O=c1n(Cc2nc(C(F)F)n(-c3cccc(F)c3)n2)nc(-c2ccc(Cl)cc2)n1C[C@H](O)C(F)(F)F [Example 52, 5-(4-Chlorophenyl)-2-{[5-(difluoromethyl)-1-(3-fluorophenyl)-1H-1,2,4-triazol-3-yl]methyl}-4-[(2S)-3,3,3-trifluoro-2-hydroxypropyl]-2,4-dihydro-3H-1,2,4-triazol-3-one]"
16,0.0,0.58,"CC(F)c1nc(Cn2nc(-c3ccc(Cl)cc3)n(C[C@H](O)C(F)(F)F)c2=O)nn1-c1cccc(Cl)c1 (mixture of isomers) [Example 16, 5-(4-Chlorophenyl)-2-({1-(3-chlorophenyl)-5-[1-fluoroethyl]-1H-1,2,4-triazol-3-yl}methyl)-4-[(2S)-3,3,3-trifluoro-2-hydroxypropyl]-2,4-dihydro-3H-1,2,4-triazol-3-one]"
60,0.1,3.85,"CC(F)c1nc(Cn2nc(-c3ccc(Cl)cc3)n(C[C@H](O)C(F)(F)F)c2=O)nn1-c1cccc(Cl)c1 (single isomer, unassigned) [Example 18]"
2.85,5.2,14.7,"CC(F)c1nc(Cn2nc(-c3ccc(Cl)cc3)n(C[C@H](O)C(F)(F)F)c2=O)nn1-c1ncccc1Cl (mixture of isomers) [Example 19, 5-(4-Chlorophenyl)-2-({1-(3-chloropyridin-2-yl)-5-[1-fluoroethyl]-1H-1,2,4-triazol-3-yl}methyl)-4-[(2S)-3,3,3-trifluoro-2-hydroxypropyl]-2,4-dihydro-3H-1,2,4-triazol-3-one]"
2.2,1.0,2.25,"CCc1ccccc1-n1nc(Cn2nc(-c3ccc(Cl)cc3)n(C[C@H](O)C(F)(F)F)c2=O)nc1C(C)(F)F [Example 62, 5-(4-Chlorophenyl)-2-{[5-(1,1-difluoroethyl)-1-(2-ethylphenyl)-1H-1,2,4-triazol-3-yl]methyl}-4-[(2S)-3,3,3-trifluoro-2-hydroxypropyl]-2,4-dihydro-3H-1,2,4-triazol-3-one]"
6.95,10.8,74.8,"CC(F)c1nc(Cn2nc(-c3ccc(Cl)cc3)n(C[C@H](O)C(F)(F)F)c2=O)nn1-c1cnccc1Cl (single isomer, unassigned) [Example 5]"
2.2,1.3,2.97,"CC(F)c1nc(Cn2nc(-c3ccc(Cl)cc3)n(C[C@H](O)C(F)(F)F)c2=O)nn1-c1c(F)cccc1F (mixture of isomers) [Example 45, 5-(4-Chlorophenyl)-2-({1-(2,6-difluorophenyl)-5-[1-fluoroethyl]-1H-1,2,4-triazol-3-yl}methyl)-4-[(2S)-3,3,3-trifluoro-2-hydroxypropyl]-2,4-dihydro-3H-1,2,4-triazol-3-one]"
3.2,0.5,1.74,"Cc1cccc(C)c1-n1nc(Cn2nc(-c3ccc(Cl)cc3)n(C[C@H](O)C(F)(F)F)c2=O)nc1C(C)F (mixture of isomers) [Example 46, 5-(4-Chlorophenyl)-2-({1-(2,6-dimethylphenyl)-5-[1-fluoroethyl]-1H-1,2,4-triazol-3-yl}methyl)-4-[(2S)-3,3,3-trifluoro-2-hydroxypropyl]-2,4-dihydro-3H-1,2,4-triazol-3-one]"
1.75,1.3,2.27,"CC(F)(F)c1nc(Cn2nc(-c3ccc(Cl)cc3)n(C[C@H](O)C(F)(F)F)c2=O)nn1-c1c(F)cccc1F [Example 70, 5-(4-Chlorophenyl)-2-{[5-(1,1-difluoroethyl)-1-(2,6-difluorophenyl)-1H-1,2,4-triazol-3-yl]methyl}-4-[(2S)-3,3,3-trifluoro-2-hydroxypropyl]-2,4-dihydro-3H-1,2,4-triazol-3-one]"
